Assay results from PMC10026764, “Overcoming the imatinib-resistant BCR-ABL mutants with new ureidobenzothiazole chemotypes endowed with potent and broad-spectrum anticancer activity” (Journal of Enzyme Inhibition and Medicinal Chemistry, 2023).
pIC50: −log10 of the molar value. Values joined by “and” are separate entries in the source; they are usually repeats but may differ in a detail not shown here. Equal entries are not always repeated. Where two headings read alike, the source gives them in different places.

Legend:
K-562 cell line = tested on: K-562 cell line; design: method as in PMID 25881828; details: K-562, single dose 10 μM; cited from earlier work
BCR-ABL^T315I [1] = target: T1, BCR-ABL^T315I (Homo sapiens, UniProt P00519, T315I); details: reported values ref 19; cited from earlier work
T1 construct: purchased Reaction Biology Corporation (RBC, Malvern, PA, USA)

BCR-ABL^WT [2] = target: T2, BCR-ABL^WT (Homo sapiens, UniProt P00519); design: method as in PMID 25881828; details: reported values ref 19; cited from earlier work
DDR1 = DDR1 (Homo sapiens, UniProt Q08345); test: Kinase selectivity test against DDR1; format: biochemical
Chain of DDR1 (Q08345 19-913, species assumed): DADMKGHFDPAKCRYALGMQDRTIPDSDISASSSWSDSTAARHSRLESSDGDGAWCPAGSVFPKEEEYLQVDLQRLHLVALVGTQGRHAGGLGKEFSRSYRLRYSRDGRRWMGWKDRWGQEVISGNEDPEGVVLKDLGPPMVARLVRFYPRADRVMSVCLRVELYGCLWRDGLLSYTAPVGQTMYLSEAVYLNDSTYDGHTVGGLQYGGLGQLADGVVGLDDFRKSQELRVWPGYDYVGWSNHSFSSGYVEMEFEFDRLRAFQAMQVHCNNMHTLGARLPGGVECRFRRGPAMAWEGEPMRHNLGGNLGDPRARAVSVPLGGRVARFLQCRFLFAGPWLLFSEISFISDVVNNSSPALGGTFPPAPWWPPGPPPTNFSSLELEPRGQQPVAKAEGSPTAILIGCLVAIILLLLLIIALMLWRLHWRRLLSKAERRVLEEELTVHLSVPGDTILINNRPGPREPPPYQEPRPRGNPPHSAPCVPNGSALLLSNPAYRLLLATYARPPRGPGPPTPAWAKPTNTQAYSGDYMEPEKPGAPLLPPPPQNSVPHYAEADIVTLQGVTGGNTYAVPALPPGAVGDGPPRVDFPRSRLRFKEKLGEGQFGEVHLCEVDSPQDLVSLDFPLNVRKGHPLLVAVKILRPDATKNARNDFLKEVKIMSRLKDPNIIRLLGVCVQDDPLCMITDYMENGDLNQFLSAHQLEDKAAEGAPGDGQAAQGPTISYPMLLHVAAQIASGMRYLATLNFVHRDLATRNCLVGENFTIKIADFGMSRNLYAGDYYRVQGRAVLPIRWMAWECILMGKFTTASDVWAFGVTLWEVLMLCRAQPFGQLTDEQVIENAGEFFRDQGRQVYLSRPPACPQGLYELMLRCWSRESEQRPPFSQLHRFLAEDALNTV
Procedure: On the other hand, to gain certain insights about the kinase selectivity of this array of ureidobenzothiazoles, compounds 2a and 2b were tested against DDR1 (Figure 4). Discoidin domain receptors (DDR1/2) are transmembrane receptor tyrosine kinases (RTKs), activated by fibrillar collagens. DDR1/2 and BCR-ABL share almost 61% sequence similarities in their ATP binding domains. […] This observation points out the merit of these ureidobenzothiazoles over the known BCR-ABL inhibitors in achieving exceptional selectivity towards BCR-ABL.

BCR-ABL^T315I [3] = target: T1, BCR-ABL^T315I; test: In vitro kinase screening (RBC), BCR-ABL^T315I; format: biochemical; details: 10-dose IC50 mode, 3-fold serial dilution, 10 μM ATP
leukaemia K-562 cells = test: MTT antiproliferative assay; details: for GI50: Homo sapiens, K562, 72 h, read-out: GI50 K-562; for SI: selectivity index (GI50 (L132)/GI50 (K562)): MTT, 72 h
Text: (§1) These cellular outcomes define the impact of BCR-ABL inhibition on the proliferation of K-562 cells.

L132 normal cell = test: MTT antiproliferative assay; details: Homo sapiens, L132, 72 h, read-out: GI50 L132
Text: as §1

BCR-ABL^WT [4] = target: T2, BCR-ABL^WT; test: In vitro kinase screening (RBC), BCR-ABL^WT; format: biochemical; details: 10-dose IC50 mode, 3-fold serial dilution, 10 μM ATP
NCI-60 cell lines = test: NCI-60 single dose SRB assay (panel); format: cell-based; details: single dose 10 μM
Text: To gain further insights about the anticancer profile of this new ureidobenzothiazole chemotypes, the structures of all final compounds were submitted to the National Cancer Institute (NCI, Developmental Therapeutics Program, Bethesda, MD, USA). Based on NCI selection criteria, compounds 2b (AK-HW-90), 2e, and 2f were chosen for broad screening against a library of 60 human cancer cell lines, representing nine types of blood and solid cancers. Employing the highly sensitive sulforhodamine B (SRB) assay, compounds 2b, 2e, and 2f were tested initially at a single dose of 10 μM, and their detailed activities on the percentages growth of the NCI-60 cell lines were illustrated in Figure 5, and compared with that observed for the lead benzothiazole AKE-5l.

SMILES | % growth (K-562 cell line) [%] | pIC50 (BCR-ABL^T315I [1]) | pIC50 (BCR-ABL^WT [2]) | pIC50 (DDR1) | pIC50 (BCR-ABL^T315I [3]) | GI50 (leukaemia K-562 cells) [nM] | SI: selectivity index (GI50 (L132)/GI50 (K562)) (leukaemia K-562 cells) | GI50 (L132 normal cell) [nM] | pIC50 (BCR-ABL^WT [4]) | number of cancer cells with cytostatic growth inhibitory activity (% growth less than 40) (NCI-60 cell lines) [cancer cells]
CNC(=O)c1cc(Oc2ccc3nc(NC(=O)NCCCN4CCN(C)CC4)sc3c2)ccn1 [AKE-5l] | 10.22 | 7.40 | 7.74 | – | – | – | – | – | – | –
COc1ccccc1-c1ccc2nc(NC(=O)Nc3ccc(N4CCN(C)CC4)cc3)sc2c1 [Compound 2a] | – | – | – | 6.71 | 8.70 and 8.69 | 4520 | 5.9 | 26800 | 8.82 | –
COc1ccccc1-c1ccc2nc(NC(=O)Nc3ccc(N4CCOCC4)cc3)sc2c1 [Compound 2c] | – | – | – | – | 8.09 | 3820 | 6.8 | 26100 | 8.67 | –
COc1ccccc1-c1ccc2nc(NC(=O)Nc3cccc(C(F)(F)F)c3)sc2c1 [Compound 2d] | – | – | – | – | – | > 10000 | – | – | – | –
COc1ccccc1-c1ccc2nc(NC(=O)Nc3ccc(CN4CCOCC4)c(C(F)(F)F)c3)sc2c1 [Compound 2f] | – | – | – | – | 6.65 | > 10000 | – | – | 7.13 | 14
